The text below walks through data of paper PMC7918738, “Microtubule Destabilizing Sulfonamides as an Alternative to Taxane-Based Chemotherapy” (International Journal of Molecular Sciences, 2021).

Data set [1] concerns HeLa (cervix epithelioid carcinoma). In words: Antiproliferative activity against HeLa (XTT colorimetric method). It counts as cell-based. The conditions noted are these: Homo sapiens, 72 h treatment. The gist of the method:
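XTT read-out at 450 nm after 4 h labelling; cells seeded, allowed 24 h to attach, then exposed 72 h to compound, screened at 1 µM and, if active, titrated 10^−5 to 10^−10 M. IC50 relative to untreated controls by non-linear fit; DMSO ≤0.5%; triplicate, three experiments.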

The subject of data set [2] is HT-29 (colon adenocarcinoma). In words: Antiproliferative activity against CA-4-resistant HT-29 with or without verapamil (sensitivity to MDR pumps, XTT). The data set is classed as cell-based, human. Conditions: Homo sapiens, HT-29; 72 h, XTT, without verapamil; read-out: Antiproliferative Activity IC50 HT-29. Summed up:
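HT-29 cells (3·10^4 cells/mL) were attached 24 h, then exposed to compounds, with or without 10 µM verapamil, for 72 h; final DMSO ≤0.5% (v/v). Proliferation read by XTT/PMS, 6 h, absorbance 450 nm; IC50 from non-linear curve fitting.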

Data set [3] is described as follows: Aqueous solubility, saturation shake-flask method, UV absorbance. The conditions noted are these: phosphate buffer, pH 7, aqueous buffer, thermodynamic from solid.
Experimental: UV absorbance at three maximum absorbance wavelengths of selected compounds was measured after 48 h shaking and subsequent microfiltration.
The aqueous solubility of the sulfonamides was determined using an approach based on the saturation shake-flask method. Tested compounds (1–2 mg) were stirred in pH 7.0 phosphate buffer (300 µL) for 48 h at room temperature. The resulting suspension was filtered over a 45 µm filter to discard insoluble residues, and the concentration in the supernatant was measured by UV absorbance. To determine the concentration, a scan between 270 and 400 nm was performed in a Helios-α UV-320 Spectrophotometer (Thermo-Spectronic, Thermo Fischer Scientific, Waltham, MA, USA) for each tested compound. Then, three maximum wavelengths of absorbance per compound were selected from the previous scan and calibration curves were performed at these three wavelengths. Solubility results are given as the average of the three measurements.

Converted amounts (≈) assume the structure as drawn.

Molecule `COc1ccc(S(=O)(=O)N(CC#N)c2cc(OC)c(OC)c(OC)c2)cc1N` [Compound 44] gave a melting point of 139 to 145 °C. This molecule had an IC50 in data set [1] of 60 nM. In data set [2], the IC50 was 61 nM. This molecule also came in with a solubility at 48 h in data set [3] of 46 µg/mL (≈ 113 µM).
